Test results as given in ChEMBL document CHEMBL1135974 (J Med Chem, 2002).
Activity calls are given as the source filed them. No cut-off for these calls is given here.

Legend:
D(3) dopamine receptor [1] = molecular target: T1, D(3) dopamine receptor (Homo sapiens, UniProt P35462); conditions: Cricetulus griseus; CHO
D(3) dopamine receptor [2] = molecular target: T1, D(3) dopamine receptor; assay: Rate of [3H]thymidine uptake compared to quinpirole (100%) in Dopamine receptor D3 expressing CHO cells; assay type: functional, cell-based; conditions: Cricetulus griseus
D(3) dopamine receptor [3] = molecular target: T1, D(3) dopamine receptor; conditions: Cricetulus griseus; CHO; remark: listed apart in the source
D(3) dopamine receptor [4] = molecular target: T1, D(3) dopamine receptor
Description: Binding affinity for human Dopamine receptor D3 by [3H]- spiperone displacement.

[5] = molecular target: Adrenergic receptor alpha-1 (Sus scrofa); assay: […] from porcine Alpha-1 adrenergic receptor; assay type: protein assay
D(4) dopamine receptor = molecular target: T2, D(4) dopamine receptor (Homo sapiens, UniProt P21917)
T2 sequence (P21917 whole entry): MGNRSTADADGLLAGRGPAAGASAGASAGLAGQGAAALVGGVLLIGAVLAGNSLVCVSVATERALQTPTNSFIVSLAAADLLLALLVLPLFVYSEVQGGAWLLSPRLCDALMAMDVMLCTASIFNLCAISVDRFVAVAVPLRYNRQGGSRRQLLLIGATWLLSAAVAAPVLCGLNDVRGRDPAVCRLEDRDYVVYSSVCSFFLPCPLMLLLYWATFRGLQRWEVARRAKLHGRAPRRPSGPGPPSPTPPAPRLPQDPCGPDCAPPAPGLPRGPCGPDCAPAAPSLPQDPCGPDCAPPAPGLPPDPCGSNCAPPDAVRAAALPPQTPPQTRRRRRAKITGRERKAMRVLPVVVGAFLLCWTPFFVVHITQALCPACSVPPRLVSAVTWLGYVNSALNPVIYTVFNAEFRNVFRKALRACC
Description: Binding affinity for human Dopamine receptor D4 by [3H]- spiperone displacement.

[6] = molecular target: 5-HT2 receptor (Sus scrofa); assay: Binding affinity for porcine 5-hydroxytryptamine 2 receptor using [3H]- ketanserin
D(2) dopamine receptor [7] = molecular target: T3, D(2) dopamine receptor (Homo sapiens, UniProt P14416)
Description: Binding affinity for human Dopamine receptor D2 (long) by [3H]- spiperone displacement.

D(2) dopamine receptor [8] = molecular target: T3, D(2) dopamine receptor; remark: listed apart in the source
Description: Binding affinity for human Dopamine receptor D2 (short) by [3H]- spiperone displacement.

T1 sequence (P35462 whole entry): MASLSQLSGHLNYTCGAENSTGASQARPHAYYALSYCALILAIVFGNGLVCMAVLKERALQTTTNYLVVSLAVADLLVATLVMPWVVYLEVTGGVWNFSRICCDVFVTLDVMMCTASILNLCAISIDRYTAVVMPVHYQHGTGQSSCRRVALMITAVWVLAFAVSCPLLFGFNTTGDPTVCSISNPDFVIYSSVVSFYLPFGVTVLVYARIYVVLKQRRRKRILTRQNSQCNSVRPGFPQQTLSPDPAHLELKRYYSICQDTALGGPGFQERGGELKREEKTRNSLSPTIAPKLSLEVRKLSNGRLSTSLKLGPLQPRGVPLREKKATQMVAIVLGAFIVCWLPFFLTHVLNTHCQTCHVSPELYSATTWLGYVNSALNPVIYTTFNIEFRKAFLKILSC
T3 sequence (P14416 whole entry): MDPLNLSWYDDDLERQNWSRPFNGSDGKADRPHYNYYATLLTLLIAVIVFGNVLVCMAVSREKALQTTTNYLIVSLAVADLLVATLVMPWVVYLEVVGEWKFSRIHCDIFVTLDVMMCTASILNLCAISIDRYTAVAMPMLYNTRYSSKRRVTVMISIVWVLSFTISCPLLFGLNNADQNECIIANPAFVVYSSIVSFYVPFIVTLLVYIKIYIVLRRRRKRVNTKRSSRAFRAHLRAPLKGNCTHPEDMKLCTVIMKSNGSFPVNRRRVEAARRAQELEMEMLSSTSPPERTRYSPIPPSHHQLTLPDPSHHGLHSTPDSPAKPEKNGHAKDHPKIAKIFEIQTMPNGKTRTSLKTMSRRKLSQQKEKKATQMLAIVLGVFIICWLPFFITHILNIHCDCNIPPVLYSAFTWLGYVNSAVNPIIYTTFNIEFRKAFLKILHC

## O=C(NCCCCN1CCN(c2cccc(Cl)c2Cl)CC1)c1cc2ccccc2o1
D(3) dopamine receptor [1]
  Effect: inactive

## COc1ccccc1N1CCN(CCCCNC(=O)c2cc3ccccn3n2)CC1
D(3) dopamine receptor [2]
  Effect: 52%

## O=C(NCCCCN1CCN(c2cccc(Cl)c2Cl)CC1)c1cc2ccccc2s1
D(3) dopamine receptor [3]
  NE: inactive

## COc1ccccc1N1CCN(CCCCNC(=O)c2cc3ccccc3[te]2)CC1
D(3) dopamine receptor [3]
  NE: inactive

## O=C(NCCCCN1CCN(c2cccc(Cl)c2Cl)CC1)c1cc2ccccc2[te]1
D(3) dopamine receptor [4]
  Ki: 0.55 nM
[5]
  Ki: > 1000 nM
D(3) dopamine receptor [3]
  NE: inactive
D(4) dopamine receptor
  Ki: 150 nM
[6]
  Ki: 730 nM
D(2) dopamine receptor [7]
  Ki: 91 nM
D(2) dopamine receptor [8]
  Ki: 48 nM
